Numbers after ± are expanded uncertainties.
Experiment: cn = amount concentration of the nth substance listed, in mol/dm3
Settings: 308 K, Liquid; for mass density: 101 kPa; for viscosity: 101.3 kPa

O=[N+]([O-])[O-].O=[N+]([O-])[O-].[Cu+2] [copper dinitrate] + O
mass density (c1 = 0.06): 1002.3 ± 0.8 kg/m3
mass density (c1 = 0.1): 1008.6 ± 0.8 kg/m3
viscosity (c1 = 0.06): 0.7347 ± 0.019 mPa·s
viscosity (c1 = 0.1): 0.7487 ± 0.02 mPa·s

[Cl][Ni][Cl] [nickel chloride (NiCl2)] + O
mass density (c1 = 0.06): 994.09 ± 0.7 kg/m3
mass density (c1 = 0.1): 1004 ± 0.7 kg/m3
viscosity (c1 = 0.06): 0.7261 ± 0.019 mPa·s
viscosity (c1 = 0.1): 0.7469 ± 0.019 mPa·s
